The test system of series [1] is WT I17T MAPT mini-gene (exon 10 splicing). The experiment in a line: 4R/3R MAPT mRNA by RT-qPCR, HeLa cells transfected with WT I17T mini-gene. The series is classed as cell-based. Here is the method: RNA Isolation and Real-Time Quantitative PCR (RT-qPCR). HeLa cells were treated as described in the Luciferase Reporter assay to Study Exon 10 Alternative Splicing. LAN5 cells were seeded in 12-well plates at 0.2×10^6 cells per well, treated with compound or ASO, and incubated for 48 h. Compound stocks prepared in DMSO and ASO stocks prepared in water were diluted in growth medium and added to cells. Total RNA was extracted from cells and analyzed via RT-qPCR to determine levels of 3R and 4R tau mRNA. In brief, the cells were washed with 1×DPBS and then lysed in the well using 300 μL of Lysis Buffer provided in a Quick-RNA MiniPrep kit (Zymo Research), which was used to extract total RNA per the manufacturer's protocol including the on-column DNase I digestion. The concentration of total RNA was measured by NanoDrop 2000 (Thermo Fisher Scientific). Only samples with OD260/OD280>1.8 were carried forward for analysis. Reverse transcription (RT) was carried out on 200 ng of total RNA using a qScript cDNA synthesis kit (QuantaBio) in a total volume of 10 μL according to the manufacturer's protocol. An Applied Biosystems QS5 384-well PCR system was used to complete qPCR reactions with Power SYBR Green Master Mix (Life Technologies), 600 nM each primer (Table S3), 20 ng of cDNA (1 μL of the RT reaction), in a total volume of 33 μL. Technical triplicates (10 μL each) were aliquoted into 384-well qPCR plates (Applied biosystems, 4483285). Subsequent qPCR analysis was performed using an Applied Biosystems QS5 384-well PCR system (software v.1.3.0). 4R/3R ratio were analyzed using ΔΔCt method using Equation 2: […]
where ΔCt 4R or ΔCt 3R is the difference between the Ct values for the 4R or 3R MAPT mRNA and a housekeeping gene (18S rRNA) in total RNA from cells.
A general note: Quantitative PCR measures a nucleic acid by following its amplification.

Series [2] deals with 4R and 3R tau protein in LAN5 cells. The series is described as follows: 4R/3R tau protein by Western blotting in LAN5 cells. The series is classed as cell-based. As to conditions: LA-N-5; 2 at 1.5 μM, LAN5, 48 h; read-out: reduction of 4R/3R protein ratio. Here is the method:
Western Blotting. LAN5 cells were seeded in 6-well plates at 0.6×10^6 cells per well, treated with compound and incubated for 48 h. After removing the growth medium, the cells were washed with 1×DPBS and harvested by trypsinization. Total protein was extracted with Mammalian Protein Extraction Reagent (M-PER, Thermo Scientific) per the manufacturer's protocol. Protein concentrations were determined using a Pierce Micro BCA Protein Assay Kit per the manufacturer's recommended protocol. Approximately 20 μg of total protein from each biological sample was separated on a sodium dodecyl sulfate (SDS)-polyacrylamide gel (5% (w/v) polyacrylamide stacking layer; 12% (w/v) polyacrylamide separating layer), followed by transferring to a polyvinylidene fluoride (PVDF; 0.45 μm) membrane. […] After three more washes with 1×TBST for 15 min each, 4R, 3R tau protein, or B-actin were detected using SuperSignal West Pico Chemiluminescent Substrate (Pierce Biotechnology).
After imaging, the membrane was stripped with 1× Stripping Buffer (200 mM glycine with 0.1% SDS, pH 2.2) for 0.5 h at room temperature, and β-actin levels were detected as described above, except using a β-actin primary antibody (Cell Signaling Technology, 4970S; 1:5000 dilution). ImageJ software was used for the quantification of the protein bands.
(In general: In western blotting, separated proteins are transferred to a membrane and probed.)

Series [3] in a line: Plasma protein binding by equilibrium dialysis. The series is classed as in vitro ADME. As to conditions: 37° C., 6 h (2 at 5 μM), read-out: free fraction in plasma. Here is the method:
Plasma and brain binding. Plasma protein binding was determined by equilibrium dialysis using a Thermo Scientific™ RED Device per the manufacturer's protocol. Each sample was prepared by addition of 2 into 100 μL plasma with final concentration of 5 μM (0.1% (v/v) DMSO). 1×PBS was used as dialysis buffer and was added into the buffer chamber. The plate was incubated with shaking at 37° C. for 6 h. The concentration of 2 in the plasma and buffer compartments was determined as described in Quantitation of 2 in Mouse Plasma and Brain. The free fraction was calculated as [buffer]/[plasma].
On the technique in general: In equilibrium dialysis free small molecules cross a membrane that holds back macromolecules.

Series [4] in a line: Plasma and brain exposure in mice. The series is classed as in vivo, C57BL/6J mouse. As to conditions: mouse, po, 100 mg/kg p.o., C57BL/6J mice. The protocol:
Quantitation of 2 in Mouse Plasma and Brain. Male C57BL/6J mice (n=3 per time point; 5-7 weeks) were orally administered with 2 (100 mg/kg) in a formulation of DMSO/Tween-80/H2O (5/5/90). After 2, 12, 24, and 48 h, mice were euthanized, and blood and brain were collected. Brains were immediately frozen. Blood was centrifuged to generate plasma and immediately frozen. On the day of analysis, brains were homogenized, mixed with a 5-times volume of acetonitrile, and filtered. The plasma was also filtered. Drug levels were determined by mass spectrometry using an ABSciex 5500 mass spectrometer with multiple reaction monitoring. Compound 2 was detected using the mass transition 435->236.

Read-outs that look alike come from different tables or passages of the source.

`COc1cc(N)ncc1CCCN(C)CCCn1cnc2c3ccccc3n(C)c2c1=O` [Compound 2, 3-(3-((3-(6-amino-4-methoxypyridin-3-yl)propyl)(methyl)amino)propyl)-5-methyl-3,5-dihydro-4H-pyrimido[5,4-b]indol-4-one]: the “PSI10 (PSI of MAPT exon 10) vs vehicle” value in series [1] is reported as “not WT I17T or DDPAC I17T mutant”. The “change in 4R/3R ratio (not statistically significant)” value in series [1] (1 at 10 μM or 2 at 1.5 μM) is less than 16%. Also, in series [2], the inhibition at 1.5 µM worked out at 54 ± 9%. Also, the fraction unbound at 6 h in series [3] worked out at 0.089 ± 0.009. Also, the concentration at 48 h in series [4] (brain, read-out: brain concentration) was found to be 2900 ± 1600 nM; in series [4] (plasma, read-out: plasma concentration) it was 500 ± 300 nM.
